Test results from patent US11434226B2, “Salt and polymorph of benzopyrimidinone compound and pharmaceutical composition and use thereof” (SHANGHAI INSTITUTE OF MATERIA MEDICA, CHINESE ACADEMY OF …, priority 2017, dated 2022).
“Also recorded” adds a separate entry of the source. Counter-ions that a name gives are not always drawn. Like-named read-outs stand apart in the source and are kept apart here.

Key:
[1] = Hygroscopicity of solid forms of hydrochlorate of compound Z; format: physicochemical
Description: (§1) The properties of crystalline form A prepared in Examples 11 or 12, crystalline form B prepared in Example 14 and amorphous substance prepared in Example 15 were compared, the results were shown in the following table 6.

[2] = Comparison of solubility of compound Z and its salts; format: physicochemical
Description: An appropriate amount of the sample was weighed in a glass test tube and a selected solvent was gradually added therein to observe the clarification.

[3] = Comparison of compound appearance and characters (odor); format: physicochemical
Description: The appearance and characters of the basic compound Z prepared in Example 16 and different salts of compound Z prepared in Examples 1-2, 5-6, 9 were observed, the results are shown in the table below: […]

[4] = Chemical stability by stress testing (high temperature, high humidity, illumination); format: physicochemical; settings: for stability, in words: high temperature, light and high humidity conditions
Description: The chemical stability of the basic compound Z prepared in Example 16 and the salts of compound Z prepared in Examples 5, 9 and 10 was compared through a stress testing, the results were shown in the table below: […]

[5] = Crystal stability of solid forms of hydrochlorate of compound Z; format: physicochemical
Description: as §1

[6] = In vivo pharmacokinetic experiment in rats; settings: by gavage
Description: The in vivo pharmacokinetic experiment in rats were carried out for the basic compound Z prepared in Example 16, the hydrochlorate of compound Z prepared in Example 9, the succinate of compound Z prepared in Example 2, the fumarate of compound Z prepared in Example 3 (administered by gavage, dose 3 mg/kg), the results were shown in FIG. 8 of the specification.

[7] = selected solvent of pH 2 (composition not named), simulated gastric fluid, thermodynamic from solid, pH = 2, read-out: Solubility
[8] = selected solvent of pH 4.5 (composition not named), aqueous buffer, thermodynamic from solid, pH = 4.5, read-out: Solubility
[9] = selected solvent of pH 6.8 (composition not named), aqueous buffer, thermodynamic from solid, pH = 6.8, read-out: Solubility
[10] = thermodynamic from solid, water (deionized), read-out: Solubility
[11] = High humidity (25° C., 92.5% RH), 5 days
[12] = High humidity (25° C., 92.5% RH), 10 days
[13] = high temperature (60° C.), 5 days
[14] = high temperature (60° C.), 10 days
[15] = illumination (4500 lx ± 500 lx), 5 days
[16] = illumination (4500 lx ± 500 lx), 10 days

SMILES | solubility [2, 7] [mg/mL] | solubility [2, 8] [mg/mL] | solubility [2, 9] [mg/mL] | solubility [2, 10] [mg/mL] | odor [3] | characters ([4]; 0 days) | purity ([4]; 0 days) [%] | characters [4, 11] | purity [4, 11] [%] | characters [4, 12] | purity [4, 12] [%] | characters [4, 13] | purity [4, 13] [%] | characters [4, 14] | purity [4, 14] [%] | characters [4, 15] | purity [4, 15] [%] | characters [4, 16] | further results
CCCOc1ccc(NC(=O)CN2CCN(C)CC2)cc1-c1nc(CC)c(CC)c(=O)[nH]1.Cl [Amorphous, 5,6-diethyl-2-[2-n-propoxy-5-(2-(4-methylpiperazin-1-yl)acetamido)phenyl]pyrimidin-4(3H)-one Hydrochloride (Amorphous)] | – | – | – | – | – | – | – | – | – | – | – | – | – | – | – | – | – | – | hygroscopicity, water absorption ([1]; 65% RH): 65% RH, water absorption 16.53%; hygroscopicity, water absorption ([1]; 80% RH): 80% RH, water absorption 6.74%
CC(=O)O.CCCOc1ccc(NC(=O)CN2CCN(C)CC2)cc1-c1nc(CC)c(CC)c(=O)[nH]1 [acetate of compound Z, 5,6-diethyl-2-[2-n-propoxy-5-(2-(4-methylpiperazin-1-yl)acetamido)phenyl]pyrimidin-4(3H)-one Acetate] | 35.8 | > 102 | 22.6 | 14 | – | – | – | – | – | – | – | – | – | – | – | – | – | – | –
CCCOc1ccc(NC(=O)CN2CCN(C)CC2)cc1-c1nc(CC)c(CC)c(=O)[nH]1 [compound Z, 5,6-diethyl-2-[2-n-propoxy-5-(2-(4-methylpiperazin-1-yl)acetamido)phenyl]pyrimidin-4(3H)-one] | 5.3 | 38.1 | 1.7 | 1.5 | Pungent odor | White | 99.6 | White | 99.64 | White | 99.53 | White | 99.69 | White | 99.36 | Yellowish | 99.37 | Yellowish | solubility, in words [2]: poor solubility in water; also recorded: significantly lower; stability, in words [4]: relatively poor
CCCOc1ccc(NC(=O)CN2CCN(C)CC2)cc1-c1nc(CC)c(CC)c(=O)[nH]1 [form A, 5,6-diethyl-2-[2-n-propoxy-5-(2-(4-methylpiperazin-1-yl)acetamido)phenyl]pyrimidin-4(3H)-one hydrochloride monohydrate (Form A)] | – | – | – | – | – | – | – | – | – | – | – | – | – | – | – | – | – | – | hygroscopicity, in words [1]: low hygroscopicity; hygroscopicity, water absorption ([1]; 65% RH): 65% RH, water absorption 2.48%; hygroscopicity, water absorption ([1]; 80% RH): 80% RH, water absorption 3.41%; Crystal stability [5]: stable; Crystal stability ([5]; listed as crystal form A): stable properties
CCCOc1ccc(NC(=O)CN2CCN(C)CC2)cc1-c1nc(CC)c(CC)c(=O)[nH]1.Cl [form B, 5,6-diethyl-2-[2-n-propoxy-5-(2-(4-methylpiperazin-1-yl)acetamido)phenyl]pyrimidin-4(3H)-one Hydrochlorate (Form B)] | – | – | – | – | – | – | – | – | – | – | – | – | – | – | – | – | – | – | hygroscopicity, water absorption ([1]; 65% RH): 65% RH, water absorption 3.58%; hygroscopicity, water absorption ([1]; 80% RH): 80% RH, water absorption 11.3%
CCCOc1ccc(NC(=O)CN2CCN(C)CC2)cc1-c1nc(CC)c(CC)c(=O)[nH]1.O=C(O)/C=C/C(=O)O [fumarate of compound Z, 5,6-diethyl-2-[2-n-propoxy-5-(2-(4-methylpiperazin-1-yl)acetamido)phenyl]pyrimidin-4(3H)-one Fumarate] | > 24.2 | > 20.2 | > 27 | > 26.6 | – | – | – | – | – | – | – | – | – | – | – | – | – | – | –
CCCOc1ccc(NC(=O)CN2CCN(C)CC2)cc1-c1nc(CC)c(CC)c(=O)[nH]1.Cl [hydrochlorate of compound Z, 5,6-diethyl-2-[2-n-propoxy-5-(2-(4-methylpiperazin-1-yl)acetamido)phenyl]pyrimidine-4(3H)-one Hydrochlorate] | > 22.8 | > 23.6 | > 26.6 | > 25 | No bad smell | White | 99.77 | White | 99.73 | White | 99.77 | White | 99.65 | White | 99.71 | White | 99.79 | White | solubility, in words [2]: good solubility; stability, in words [4]: high stability; stability, in words ([4]; listed as hydrochlorate): stable; purity [4, 16]: 99.72%; oral bioavailability, in words ([6]; 3 mg/kg): high oral bioavailability; in vivo pharmacokinetic properties (plasma concentration-time curve, FIG. 8), in words ([6]; dose 3 mg/kg, compared with compound Z): significantly better
CCCOc1ccc(NC(=O)CN2CCN(C)CC2)cc1-c1nc(CC)c(CC)c(=O)[nH]1.O=C(O)/C=C\C(=O)O [maleate of compound Z, 5,6-diethyl-2-[2-n-propoxy-5-(2-(4-methylpiperazin-1-yl)acetamido)phenyl]pyrimidine-4(3H)-one Maleate] | 6.1 | 21.4 | 46.4 | 5.8 | No bad smell | – | – | – | – | – | – | – | – | – | – | – | – | – | –
CCCOc1ccc(NC(=O)CN2CCN(C)CC2)cc1-c1nc(CC)c(CC)c(=O)[nH]1.CS(=O)(=O)O [methanesulfonate of compound Z, 5,6-diethyl-2-[2-n-propoxy-5-(2-(4-methylpiperazin-1-yl)acetamido)phenyl]pyrimidin-4(3H)-one Methanesulfonate] | > 22.4 | > 25.4 | > 23.2 | > 23.8 | No bad smell | White | 99.66 | Yellow | 99.54 | Yellow | 99.55 | White | 99.54 | White | 99.49 | White | 99.72 | White | purity [4, 16]: 99.46%
CCCOc1ccc(NC(=O)CN2CCN(C)CC2)cc1-c1nc(CC)c(CC)c(=O)[nH]1.O=C(O)[C@@H](O)[C@H](O)[C@H](O)[C@@H](O)C(=O)O [mucate of compound Z, 5,6-diethyl-2-[2-n-propoxy-5-(2-(4-methylpiperazin-1-yl)acetamido)phenyl]pyrimidin-4(3H)-one Mucate] | – | – | – | – | – | – | – | – | – | – | – | – | – | – | – | – | – | – | solubility ([2]; pH = 2): 36.3 mg/mL; solubility ([2]; pH = 4.5): 62.7 mg/mL; solubility ([2]; pH = 6.8): 39.0 mg/mL; solubility ([2]; water (deionized)): 10.6 mg/mL
CCCOc1ccc(NC(=O)CN2CCN(C)CC2)cc1-c1nc(CC)c(CC)c(=O)[nH]1.O=C(O)CCC(=O)O [succinate of compound Z, 5,6-diethyl-2-[2-n-propoxy-5-(2-(4-methylpiperazin-1-yl)acetamido)phenyl]pyrimidin-4(3H)-one Succinate] | > 20.8 | > 22 | > 20.8 | > 24.8 | No bad smell | – | – | – | – | – | – | – | – | – | – | – | – | – | –
CCCOc1ccc(NC(=O)CN2CCN(C)CC2)cc1-c1nc(CC)c(CC)c(=O)[nH]1.O=S(=O)(O)O [sulfate of compound Z, 5,6-diethyl-2-[2-n-propoxy-5-(2-(4-methylpiperazin-1-yl)acetamido)phenyl]pyrimidin-4(3H)-one Sulfate] | > 20.2 | > 25.6 | > 24.4 | > 20.6 | – | Yellow | 99.63 | Yellow powder | 99.64 | Yellow powder | 99.62 | Yellow | 99.59 | Yellow | 99.64 | Yellow | 97.43 | Gray-yellow | purity [4, 16]: 96.99%
CCCOc1ccc(NC(=O)CN2CCN(C)CC2)cc1-c1nc(CC)c(CC)c(=O)[nH]1.O=C(O)C(O)C(O)C(=O)O [tartrate of compound Z, 5,6-diethyl-2-[2-n-propoxy-5-(2-(4-methylpiperazin-1-yl)acetamido)phenyl]pyrimidin-4(3H)-one Tartrate] | > 219 | > 155 | > 130 | > 153 | No bad smell | – | – | – | – | – | – | – | – | – | – | – | – | – | –
